Assay results as given in patent US20020022586A1, “Method for treating a patient with neoplasia by treatment with a pyrimidine analog” (priority 1998, published 2002).

Legend:
HT-29 cells [1] = assay: Apoptosis by DNA fragmentation assay in HT-29 cells; assay type: cell-based, human; design: Apoptosis: key to the marks not given beside the values
COX = COX inhibition; assay type: biochemical
HT-29 cells [2] = assay: HT-29 tumor cell growth inhibition, SRB assay; assay type: cell-based, human; design: Growth Inhibition: key to the marks not given beside the values
cGMP-PDE [3] = assay: cGMP-PDE inhibition assay, enzyme from HT-29 tumor cells; assay type: biochemical, human; design: PDE Inhibition: key to the marks not given beside the values; details: activity profile
cGMP-PDE [4] = tested on: T1, cGMP-PDE; assay: as above; assay type: biochemical, human; design: PDE Inhibition: key to the marks not given beside the values
T1 construct: other: 10 μM; other: 100 μM; other: enzyme from HT-29 cells; other: 20 μM

PDE4 = PDE4 inhibition assay, enzyme from HT-29 tumor cells; assay type: biochemical, human; details: enzyme from HT-29 cells
Protocol: Cyclic GMP labeled with tritium (^3H-cGMP) is used as the substrate for the PDE enzymes. (Thompson, W. J., Teraski, W. L., Epstein, P. M., Strada, S. J., Advances in Cyclic Nucleotide Research, 10:69-92, 1979, which is incorporated herein by reference).
In brief, a solution of defined substrate ^3H-cGMP specific activity is mixed with the drug to be tested. The mixture is incubated with isolated PDE activity (either a single PDE or a mixture of PDE activities). The degree of phosphodiesterase inhibition is determined by calculating the amount of radioactivity released in drug-treated reactions and comparing those against a control sample (a reaction mixture lacking the tested compound but with the drug solvent).
Reference compounds and test compounds were analyzed for their cGMP-PDE inhibitory activity in accordance with the protocol for the assay described supra. […] Both compounds show selectivity for the cGMP-PDE isoenzyme forms over PDE4 isoforms.

[5] = tested on: premalignant lesions in mouse mammary gland organ culture; assay: Mammary gland organ culture model; assay type: cell-based; details: activity profile; note: key: −: Not active; +: Slightly active; ++: Moderately active; +++: Strongly active; ++++: Highly active
Protocol: For example, female BALB/c mice can be treated with a combination of estradiol and progesterone daily, in order to prime the glands to be responsive to hormones in vitro. The animals are sacrificed and thoracic mammary glands are excised aseptically and incubated for ten days in growth media supplemented with insulin, prolactin, hydrocortisone, and aldosterone. DMBA (7,12-dimethylbenz(a)anthracene) is added to medium to induce the formation of premalignant lesions. Fully developed glands are then deprived of prolactin, hydrocortisone, and aldosterone, resulting in the regression of the glands but not the premalignant lesions.
The test compound is dissolved in DMSO and added to the culture media for the duration of the culture period. At the end of the culture period, the glands are fixed in 10% formalin, stained with alum carmine, and mounted on glass slides. The extent of the area occupied by the mammary lesions can be quantitated by projecting an image of the gland onto a digitation pad. The area covered by the gland is traced on the pad and considered as 100% of the area. The space covered by each of the unregressed structures is also outlined on the digitization pad and quantitated by the computer.
The incidence of forming mammary lesions is the ratio of the glands with mammary lesions to […]. The incidence of mammary lesions in test compound treated glands is compared with that of the untreated glands.
Mammary gland organ culture experiments were performed as previously described (Mehta and Moon, Cancer Research, 46: 5832-5835, 1986). […] The data support the hypothesis that cyclooxygenase inhibition is not necessary for the anti-neoplastic properties of desired compounds.

- EC50 (HT-29 cells [1]; Homo sapiens, HT-29, 48 hours, DNA fragmentation, read-out: EC50 for apoptosis induction): ~175 µM
- IC50 (cGMP-PDE [4]; enzyme from HT-29 cells): 18 µM
- IC50 (PDE4): 58 µM
SMILES: COc1cc(/C=C2/C(C)=C(CC(=O)O)c3cc(F)ccc32)cc(OC)c1OC [Compound B, (Z)-5-Fluoro-2-methyl-1-(3,4,5-trimethoxybenzylidene)-3-acetic acid]
- fold induction at 100 µM (HT-29 cells [1]; Homo sapiens, HT-29, 100 μM, read-out: Apoptosis inducing activity, Fold induction at 100 μM): > 2
- Apoptosis (HT-29 cells [1]; activity profile): +++
- COX Inhibition (COX; 100 μM): did not inhibit COX
- COX Inhibition (COX; activity profile): −
- inhibition at 100 µM (HT-29 cells [2]; Homo sapiens, HT-29, 100 μM single dose, read-out: Growth inhibitory activity, % Inhibition at 100 μM): 77%
- Growth Inhibition (HT-29 cells [2]; activity profile): +++
- PDE Inhibition (cGMP-PDE [3]): +++
- cGMP PDE % Inhibition at 100 μM (cGMP-PDE [4]; 100 μM): <25%
- Mammary Gland Organ Culture [5]: ++
